From patent US5596009A, “Fused benzeneoxyacetic acid derivatives” (Ono Pharmaceutical Co., Ltd., priority 1991, dated 1997) come the findings set out here.

The target in one experiment is T1, PGl2 receptor (Homo sapiens, UniProt P43119).
T1 construct: human blood platelet membrane fraction (0.3 mg protein) was added; from tissue; host or cells: human blood platelets (membrane fraction)
Briefly: Inhibitory activity on binding of ^3 H-iloprost to PGl2 receptor on human blood platelet membrane fraction. To be noted: human blood platelet membrane fraction (0.3 mg protein), 10 nM [^3 H]-iloprost, pH 7.4, 24° C., 30 min; read-out: IC50 (inhibition of [^3 H]-iloprost binding to PGl2 receptor). How it is done:
i) Inhibitory activity on binding of ^3 H-iloprost to PGl2 receptor on human blood platelet membrane fraction
50 mM Tris-HCl buffer (pH 7.4) containing 15 mM MgCl2, 5 mM EDTA and 10 nM [^3 H]-iloprost were used as reaction medium. To 0.2 ml of the reaction medium, human blood platelet membrane fraction (0.3 mg protein) was added with or without a test compound. The mixture was incubated at 24° C. for 30 min. After incubation, 4 ml of ice-cold 10 mM Tris-HCl buffer (pH 7.4) was added to the reaction mixture, and filtered through Whatman GF/B glass fiber filter, and washed 4 times with 4 ml of ice-cold 10 mM Tris-HCl buffer (pH 7.4) to separate bound and free [^3 H]-iloprost. After washing, the filter was dried and radioactivity was counted. Non-specific binding was obtained by performing parallel binding experiments in the presence of 10 μM non-labelled iloprost. Specific binding was calculated by subtracting the non-specific binding from the total binding.
The inhibitory effect of test compound was calculated from the following equation.
The percentage of inhibition (%)=100-(B1 /B0 ×100)
B1 : specific [^3 H]-iloprost binding in presence of test compound
B0 : specific [^3 H]-iloprost binding in absence of test compound

Experiment [1] deals with human blood platelet aggregation. Nature of the experiment: Inhibitory effect on human blood platelet aggregation. The experiment is classed as cell-based. Conditions: human platelet-rich plasma (5×10^5 platelets/mm^3), compound 1 min prior to ADP (4 μm); read-out: IC50 (inhibition of platelet aggregation). The method, then: ii) Inhibitory effect on human blood platelet aggregation
Platelet-rich plasma (PRP) was prepared from human blood (5×10^5 platelets/mm^3), and a test compound was added to PRP 1 min prior to the addition of ADP (4 μm). The aggregation was monitored using a platelet aggregometer (NBS HEMA TRACER 601, Niko Bioscience, Japan).

T1 sequence (P43119 whole entry): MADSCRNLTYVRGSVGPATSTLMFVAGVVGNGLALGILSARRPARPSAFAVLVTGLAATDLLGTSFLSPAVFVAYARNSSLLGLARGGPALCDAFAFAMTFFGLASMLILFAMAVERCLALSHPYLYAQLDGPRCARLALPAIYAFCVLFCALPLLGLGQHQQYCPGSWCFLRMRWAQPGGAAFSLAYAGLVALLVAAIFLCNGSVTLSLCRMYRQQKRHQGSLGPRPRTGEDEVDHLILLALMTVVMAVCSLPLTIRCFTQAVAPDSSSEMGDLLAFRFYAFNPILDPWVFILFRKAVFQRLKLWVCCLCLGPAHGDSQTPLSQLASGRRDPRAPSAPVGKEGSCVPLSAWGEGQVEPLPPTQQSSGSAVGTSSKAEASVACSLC

Usually IC50 stands for the midpoint of a concentration-inhibition curve. For `O=C(O)COc1cccc2c1CCCC2CCCC(=O)N(c1ccccc1)c1ccccc1` (centres unmarked) [3 (dd), [1-(3-(N,N-Diphenylamino)carbonylpropyl)-1,2,3,4-tetrahydronaphthalen-5-yl]oxyacetic acid], the IC50 on PGl2 receptor is 1700 nM; in experiment [1], 5100 nM. As for `O=C(O)COc1cccc2c1CCCC2CCC(=O)N(c1ccccc1)c1ccccc1` (centres unmarked) [Example 3, [1-(2-Diphenylaminocarbonylethyl)-1,2,3,4-tetrahydronaphthalen-5-yl]oxyacetic acid], the IC50 at PGl2 receptor was determined as 680 nM; in experiment [1], 8300 nM.

Consider `O=C(O)COc1cccc2c1CCC(CCC(=O)NN=C(c1ccccc1)c1ccccc1)C2` (centres unmarked) [3 (aa), [2-(2-(Diphenylmethylideneamino)aminocarbonylethyl)-1,2,3,4-tetrahydronaphthalen-5-yl]oxyacetic acid], for which the IC50 on PGl2 receptor was found to be 6000 nM. Regarding `CN(CC1CCc2c(cccc2OCC(=O)O)C1)C(=O)NC(c1ccccc1)c1ccccc1` (centres unmarked) [Example 7, [2-(N-Methyl-N-(diphenylmethylaminocarbonyl)aminomethyl)-1,2,3,4-tetrahydronaphthalen-5-yl]oxyacetic acid], at PGl2 receptor, the IC50 turned out to be 6600 nM.

Regarding `CN(CC1CCc2c(cccc2OCC(=O)O)C1)C(=O)CN(Cc1ccccc1)c1ccccc1` (centres unmarked) [8 (b), [2-((N-Methyl-N-((N'-benzyl-N'-phenylamino)methylcarbonyl)amino)methyl)-1,2,3,4-tetrahydronaphthalen-5-yl]oxyacetic acid], the 50% inhibitory concentration (IC50) on PGl2 receptor is 3100 nM; in experiment [1], 8000 nM. Consider `O=C(O)COc1cccc2c1CCCC2CC(=O)NN(c1ccccc1)c1ccccc1` (centres unmarked) [3 (j), [1-((N,N-Diphenylamino)aminocarbonyimethyl)-1,2,3,4-tetrahydronaphthalen-5-yl]oxyacetic acid], for which the IC50 at PGl2 receptor came out at 7600 nM.

Turning to `O=C(O)COc1cccc2c1CCCC2CCCC(=O)NC(c1ccccc1)c1ccccc1` (centres unmarked) [3 (cc), [1-(3-Diphenylmethylaminocarbonylpropyl)-1,2,3,4-tetrahydronaphthalen-5-yl]oxyacetic acid], at PGl2 receptor, the half-maximal inhibitory concentration (IC50) came out at 2700 nM. The same measure, in the same setting: as for `CCCN(CCC1CCc2c(cccc2OCC(=O)O)C1)C(=O)CN(Cc1ccccc1)c1ccccc1` (centres unmarked) [10 (b), [2-(2-(N-Propyl-N-((N'-benzyl-N'-phenylamino)methylcarbonyl)amino)ethyl)-1,2,3,4-tetrahydronaphthalen-5-yl]oxyacetic acid], the figure is 8400 nM; as for `O=C(O)COc1cccc2c1CCCC2CCC(=O)N(Cc1ccccc1)Cc1ccccc1` (centres unmarked) [3 (m), [1-(2-Dibenzylaminocarbonylethyl)-1,2,3,4-tetrahydronaphthalen-5-yl]oxyacetic acid], 320 nM. `CCCN(CCC1CCc2c(cccc2OCC(=O)O)C1)C(=O)CN(c1ccccc1)c1ccccc1` (centres unmarked) [10 (a), [2-(2-(N-Propyl-N-(diphenylaminomethylcarbonyl)amino)ethyl)-1,2,3,4-tetrahydronaphthalen-5-yl]oxyacetic acid]: the IC50 on PGl2 receptor is 480 nM. As for `O=C(O)COc1cccc2c1CCC(CC(=O)NN(c1ccccc1)c1ccccc1)C2` (centres unmarked) [3 (w), [2-((N,N-Diphenylamino)aminocarbonylmethyl)-1,2,3,4-tetrahydronaphthalen-5-yl]oxyacetic acid], the values for the half-maximal inhibitory concentration (IC50) (on PGl2 receptor; in experiment [1]) were 20 nM and 620 nM, respectively. As for `O=C(O)COc1cccc2c1CCCC2CCC(=O)NN(c1ccccc1)c1ccccc1` (centres unmarked) [3 (p), [1-(2-(N,N-Diphenylamino)aminocarbonylethyl)-1,2,3,4-tetrahydronaphthalen-5-yl]oxyacetic acid], the results for the IC50 (at PGl2 receptor; in experiment [1]) were 9.4 nM and 110 nM, respectively. For `O=C(O)COc1cccc2c1CCCC2CCC(=O)N(Cc1ccccc1)c1ccccc1` (centres unmarked) [3 (l), [1-(2-(N-Benzyl-N-phenylamino)carbonylethyl)-1,2,3,4-tetrahydronaphthalen-5-yl]oxyacetic acid], the IC50 at PGl2 receptor stood at 2900 nM. Take `O=C(O)COc1cccc2c1CCCC2CCC(=O)NC(Cc1ccccc1)c1ccccc1` (centres unmarked) [3 (q), [1-(2-(1,2-Diphenylethyl)aminocarbonylethyl)-1,2,3,4-tetrahydronaphthalen-5-yl]oxyacetic acid]: at PGl2 receptor, the IC50 was 6800 nM. Take `CCCN(CC1CCc2c(cccc2OCC(=O)O)C1)C(=O)CN(c1ccccc1)c1ccccc1` (centres unmarked) [8 (c), [2-((N-Propyl-N-(diphenylaminomethylcarbonyl)amino)methyl)-1,2,3,4-tetrahydronaphthalen-5-yl]oxyacetic acid]: the half-maximal inhibitory concentration (IC50) at PGl2 receptor came out at 180 nM; in experiment [1] it was 2500 nM. Take `O=C(O)COc1cccc2c1CCC(CCC(=O)NN(c1ccccc1)c1ccccc1)C2` (centres unmarked) [3 (z), [2-(2-(N,N-Diphenylamino)aminocarbonylethyl)-1,2,3,4-tetrahydronaphthalen-5-yl]oxyacetic acid]: the half-maximal inhibitory concentration (IC50) was 100 nM at PGl2 receptor and 2300 nM in experiment [1]. Regarding `O=C(O)COc1cccc2c1CCC(CC(=O)NC(c1ccccc1)c1ccccc1)C2` (centres unmarked) [3 (v), [2-(Diphenylmethylaminocarbonylmethyl)-1,2,3,4-tetrahydronaphthalen-5-yl]oxyacetic acid], the half-maximal inhibitory concentration (IC50) at PGl2 receptor is 120 nM; in experiment [1], 1000 nM.

Take `CCCN(CC1CCc2c(cccc2OCC(=O)O)C1)C(=O)CN(Cc1ccccc1)c1ccccc1` (centres unmarked) [8 (d), [2-((N-Propyl-N-((N'-benzyl-N'-phenylamino)methylcarbonyl)amino)methyl)-1,2,3,4-tetrahydronaphthalen-5-yl]oxyacetic acid]: the IC50 came out at 1800 nM on PGl2 receptor and 5600 nM in experiment [1].

For the compound `CN(CCC1CCc2c(cccc2OCC(=O)O)C1)C(=O)CN(c1ccccc1)c1ccccc1` (centres unmarked) [10 (c), [2-(2-(N-Methyl-N-(diphenylaminomethylcarbonyl)amino)ethyl)-1,2,3,4-tetrahydronaphthalen-5-yl]oxyacetic acid], the half-inhibitory concentration (IC50) at PGl2 receptor turned out to be 1300 nM. With `COC(=O)COc1cccc2c1CCC(CN(C)C(=O)CN(c1ccccc1)c1ccccc1)C2` (centres unmarked) [4 (a), Methyl [2-((N-methyl-N-(diphenylaminomethylcarbonyl)amino)methyl)-1,2,3,4-tetrahydronaphthalen-5-yl]oxyacetate], the IC50 on PGl2 receptor came out at 2300 nM.

Consider `O=C(O)COc1cccc2c1CCCC2CCC(=O)NC(c1ccccc1)c1ccccc1` (centres unmarked) [3 (o), [1-(2-Diphenylmethylaminocarbonylethyl)-1,2,3,4-tetrahydronaphthalen-5-yl]oxyacetic acid], for which the concentration for half-maximal inhibition (IC50) at PGl2 receptor was 210 nM; in experiment [1], 400 nM. For the compound `O=C(O)COc1cccc2c1CCC(CCC(=O)N(Cc1ccccc1)Cc1ccccc1)C2` (centres unmarked) [3 (x), [2-(2-(N,N-Dibenzylamino)carbonylethyl)-1,2,3,4-tetrahydronaphthalen-5-yl]oxyacetic acid], on PGl2 receptor, the half-inhibitory concentration (IC50) came to 2700 nM. Same read-out and setting: next, `O=C(O)COc1cccc2c1CCCC2CCCC(=O)N(Cc1ccccc1)Cc1ccccc1` (centres unmarked) [3 (bb), [1-(3-(N,N-Dibenzylamino)carbonylpropyl)-1,2,3,4-tetrahydronaphthalen-5-yl]oxyacetic acid]: 4100 nM. For `O=C(O)COc1cccc2c1CCC(CCC(=O)NC(c1ccccc1)c1ccccc1)C2` (centres unmarked) [3 (y), [2-(2-(Diphenylmethylamino)carbonylethyl)-1,2,3,4-tetrahydronaphthalen-5-yl]oxyacetic acid], the results for the IC50 (on PGl2 receptor; in experiment [1]) were 1800 nM and 7000 nM, respectively.
